The values that follow come from patent publication US20230077362A1 (CORTEVA AGRISCIENCE LLC, priority 2019, published 2023).

Experiment [1] relates to Cabbage Looper (Trichoplusia ni) ("CL"), second instar larvae. As to the kind of experiment: Bioassay on cabbage looper (CL), 128-well diet tray assay. To be noted: for pest or weed control at 50 µg/cm2: Trichoplusia ni, read-out: CL rating; for CL rating: Table ABC, species CL, C = not tested, D = no activity noticed. The experiment is classed as in vivo. Put shortly:
(§1)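 Second-instar larvae on diet in 128-well trays, covered and held at 25° C, 14:10 light-dark, for five to seven days. Percent mortality scored per well and averaged over eight wells; activity reported as a rating category.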

The subject of experiment [2] is Beet Armyworm (Spodoptera exigua) ("BAW"), second instar larvae. As to the kind of experiment: Bioassay on beet armyworm (BAW), 128-well diet tray assay. The class given is in vivo. To be noted: for pest or weed control at 50 µg/cm2: Spodoptera exigua, read-out: BAW rating; for BAW rating: Table ABC, species BAW, C = not tested, D = no activity noticed. Put shortly:
as §1

In the case of `CCCc1ccc(N(C)C)cc1N1C(=O)CS/C1=N\C(=O)Nc1ccc(-c2ncn(-c3ccc([S+]([O-])C(F)(F)F)cc3)n2)cc1F` (centres unmarked) [Compound J383, (Z)-1-(3-(5-(Dimethylamino)-2-propylphenyl)-4-oxothiazolidin-2-ylidene)-3-(2-fluoro-4-(1-(4-((trifluoromethyl)sulfinyl)phenyl)-1H-1,2,4-triazol-3-yl)phenyl)urea], the pest or weed control at 50 µg/cm2 in experiment [1] and in experiment [2] was 50 to 100% throughout.
In the case of `CC(C)c1cc(F)c(N(C)C)cc1N1C(=O)CS/C1=N\C(=O)Nc1ccc(-c2ncn(-c3ccc([S+]([O-])C(F)(F)F)cc3)n2)cc1F` (centres unmarked) [Compound J384, (Z)-1-(3-(5-(Dimethylamino)-4-fluoro-2-isopropylphenyl)-4-oxothiazolidin-2-ylidene)-3-(2-fluoro-4-(1-(4-((trifluoromethyl)sulfinyl)phenyl)-1H-1,2,4-triazol-3-yl)phenyl)urea], the pest or weed control at 50 µg/cm2 in experiment [1] and in experiment [2] was 50 to 100% in each case.
With `N#Cc1ccc(OCCC(F)(F)F)c(N2C(=O)CS/C2=N\C(=O)Nc2ccc(-c3ncn(-c4ccc([S+]([O-])C(F)(F)F)cc4)n3)cc2F)c1` (centres unmarked) [Compound J385, (Z)-1-(3-(5-Cyano-2-(3,3,3-trifluoropropoxy)phenyl)-4-oxothiazolidin-2-ylidene)-3-(2-fluoro-4-(1-(4-((trifluoromethyl)sulfinyl)phenyl)-1H-1,2,4-triazol-3-yl)phenyl)urea], the pest or weed control at 50 µg/cm2 in experiment [1] and in experiment [2] was 50 to 100% throughout.
Take `COC(c1ccc(C)cc1N1C(=O)CS/C1=N\C(=O)Nc1ccc(-c2ncn(-c3ccc([S+]([O-])C(F)(F)F)cc3)n2)cc1F)C(F)(F)F` (centres unmarked) [Compound J386, (Z)-1-(2-Fluoro-4-(1-(4-((trifluoromethyl)sulfinyl)phenyl)-1H-1,2,4-triazol-3-yl)phenyl)-3-(3-(5-methyl-2-(2,2,2-trifluoro-1-methoxyethyl)phenyl)-4-oxothiazolidin-2-ylidene)urea]: the pest or weed control at 50 µg/cm2 in experiment [1] and in experiment [2] was 50 to 100% each time.
For the molecule `Cc1ccc(OCCC(F)(F)F)c(N2C(=O)CS/C2=N\C(=O)Nc2ccc(-c3ncn(-c4ccc(SC(F)(F)F)cc4)n3)cc2)c1` [Compound J387, (Z)-1-(3-(5-Methyl-2-(3,3,3-trifluoropropoxy)phenyl)-4-oxothiazolidin-2-ylidene)-3-(4-(1-(4-((trifluoromethyl)thio)phenyl)-1H-1,2,4-triazol-3-yl)phenyl)urea], the pest or weed control at 50 µg/cm2 in experiment [1] and in experiment [2] was 50 to 100% throughout.
On to `CCCc1ccc(N(C)C)cc1N1C(=O)CS/C1=N\C(=O)Nc1ccc(-c2ncn(-c3ccc(SC(F)(F)F)cc3)n2)cc1` [Compound J388, (Z)-1-(3-(5-(Dimethylamino)-2-propylphenyl)-4-oxothiazolidin-2-ylidene)-3-(4-(1-(4-((trifluoromethyl)thio)phenyl)-1H-1,2,4-triazol-3-yl)phenyl)urea], for which the pest or weed control at 50 µg/cm2 in experiment [1] and in experiment [2] was 50 to 100% throughout.
As to `CC(C)c1cc(F)c(N(C)C)cc1N1C(=O)CS/C1=N\C(=O)Nc1ccc(-c2ncn(-c3ccc(SC(F)(F)F)cc3)n2)cc1` [Compound J389, (Z)-1-(3-(5-(Dimethylamino)-4-fluoro-2-isopropylphenyl)-4-oxothiazolidin-2-ylidene)-3-(4-(1-(4-((trifluoromethyl)thio)phenyl)-1H-1,2,4-triazol-3-yl)phenyl)urea], the pest or weed control at 50 µg/cm2 in experiment [1] and in experiment [2] was 50 to 100% throughout.
Regarding `Cc1ccc(COCC(F)(F)F)c(N2C(=O)CS/C2=N\C(=O)Nc2ccc(-c3ccn(-c4ccc(C(F)(F)F)nn4)n3)cc2F)c1` [Compound J390], in experiment [1], the CL rating result is given as “A (50-100)”. In addition, in experiment [2], the BAW rating result is reported as “A (50-100)”.
For `CC(C)c1ccc(N(C)C)cc1N1C(=O)CS/C1=N\C(=O)Nc1ccc(-c2ccn(-c3ccc(C(F)(F)F)nn3)n2)cc1F` [Compound J391], the pest or weed control at 50 µg/cm2 in experiment [1] and in experiment [2] was 50 to 100% each time.
For the molecule `N#Cc1ccc(OCCC(F)(F)F)c(N2C(=O)CS/C2=N\C(=O)Nc2ccc(-c3ncn(-c4ccc(SC(F)(F)F)cc4)n3)cc2)c1` [Compound J392, (Z)-1-(3-(5-Cyano-2-(3,3,3-trifluoropropoxy)phenyl)-4-oxothiazolidin-2-ylidene)-3-(4-(1-(4-((trifluoromethyl)thio)phenyl)-1H-1,2,4-triazol-3-yl)phenyl)urea], the pest or weed control at 50 µg/cm2 in experiment [1] and in experiment [2] was 50 to 100% each time.
As to `Cc1ccc(COCC(F)(F)F)c(N2C(=O)CS/C2=N\C(=O)Nc2ccc(-c3ncn(-c4ccc(C(F)(F)F)nn4)n3)cc2F)c1` [Compound J394], the CL rating entry in experiment [1] is recorded as “A (50-100)”. In addition, the BAW rating entry in experiment [2] is on record as “A (50-100)”.
On to `CC(=O)c1cc(-c2ncn(-c3ccc(OC(F)(F)F)cc3)n2)ccc1NC(=O)/N=C1\SCC(=O)N1c1cc(C)ccc1C(C)C` [Compound J395, (Z)-1-(2-Acetyl-4-(1-(4-(trifluoromethoxy)phenyl)-1H-1,2,4-triazol-3-yl)phenyl)-3-(3-(2-isopropyl-5-methylphenyl)-4-oxothiazolidin-2-ylidene)urea], for which the pest or weed control at 50 µg/cm2 in experiment [1] and in experiment [2] was 50 to 100% each time.
For `CC(=O)c1cc(-c2ncn(-c3ccc(OC(F)(F)F)cc3)n2)ccc1NC(=O)/N=C1\SCC(=O)N1c1cc(N(C)C)ccc1C(C)C` [Compound J396, (Z)-1-(2-Acetyl-4-(1-(4-(trifluoromethoxy)phenyl)-1H-1,2,4-triazol-3-yl)phenyl)-3-(3-(5-(dimethylamino)-2-isopropylphenyl)-4-oxothiazolidin-2-ylidene)urea], the pest or weed control at 50 µg/cm2 in experiment [1] and in experiment [2] was 50 to 100% each time.
`COC(C)c1ccc(C)cc1N1C(=O)CS/C1=N\C(=O)Nc1ccc(-c2ncn(-c3ccc(OC(F)(F)F)cc3)n2)cc1C(C)=O` (centres unmarked) [Compound J397, (Z)-1-(2-Acetyl-4-(1-(4-(trifluoromethoxy)phenyl)-1H-1,2,4-triazol-3-yl)phenyl)-3-(3-(2-(1-methoxyethyl)-5-methylphenyl)-4-oxothiazolidin-2-ylidene)urea]: the pest or weed control at 50 µg/cm2 in experiment [1] and in experiment [2] was 50 to 100% throughout.
With `CC(=O)c1cc(-c2ncn(-c3ccc(OC(F)(F)F)cc3)n2)ccc1NC(=O)/N=C1\SCC(=O)N1c1cc(C)ccc1COCC(F)(F)F` [Compound J398, (Z)-1-(2-Acetyl-4-(1-(4-(trifluoromethoxy)phenyl)-1H-1,2,4-triazol-3-yl)phenyl)-3-(3-(5-methyl-2-((2,2,2-trifluoroethoxy)methyl)phenyl)-4-oxothiazolidin-2-ylidene)urea], the pest or weed control at 50 µg/cm2 in experiment [1] and in experiment [2] was 50 to 100% in each case.
In the case of `CC(=O)c1cc(-c2ncn(-c3ccc(OC(F)(F)F)cc3)n2)ccc1NC(=O)/N=C1\SCC(=O)N1c1cc(C)ccc1OCCC(F)(F)F` [Compound J399, (Z)-1-(2-Acetyl-4-(1-(4-(trifluoromethoxy)phenyl)-1H-1,2,4-triazol-3-yl)phenyl)-3-(3-(5-methyl-2-(3,3,3-trifluoropropoxy)phenyl)-4-oxothiazolidin-2-ylidene)urea], the pest or weed control at 50 µg/cm2 in experiment [1] and in experiment [2] was 50 to 100% in each case.
As to `Cc1ccc(COCC(F)F)c(N2C(=O)CS/C2=N\C(=O)Nc2ccc(-c3ncn(-c4ccc(C(F)(F)F)cn4)n3)cc2F)c1` [Compound J400], the CL rating result in experiment [1] is on record as “A (50-100)”. For the same molecule, in experiment [2], the BAW rating result is “A (50-100)”.
As to `Cc1ccc(COCC(F)F)c(N2C(=O)CS/C2=N\C(=O)Nc2ccc(-c3ncn(-c4ccc(OC(F)(F)F)cc4)n3)cc2F)c1` [Compound J401], the pest or weed control at 50 µg/cm2 in experiment [1] and in experiment [2] was 50 to 100% throughout.
For the molecule `Cc1ccc(OCCC(F)(F)F)c(N2C(=O)CS/C2=N\C(=O)Nc2ccc(-c3ncn(-c4ccc(S(=O)(=O)C(F)(F)F)cc4)n3)cc2C#N)c1` [Compound J402, (Z)-1-(2-cyano-4-(1-(4-((trifluoromethyl)sulfonyl)phenyl)-1H-1,2,4-triazol-3-yl)phenyl)-3-(3-(5-methyl-2-(3,3,3-trifluoropropoxy)phenyl)-4-oxothiazolidin-2-ylidene)urea], the pest or weed control at 50 µg/cm2 in experiment [1] and in experiment [2] was 50 to 100% each time.
`Cc1ccc(COCC(F)(F)F)c(N2C(=O)CS/C2=N\C(=O)Nc2ccc(-n3cnc(-c4ccc(OC(F)(F)F)cc4)n3)cc2)c1` [Compound J403, (Z)-1-(3-(5-Methyl-2-((2,2,2-trifluoroethoxy)methyl)phenyl)-4-oxothiazolidin-2-ylidene)-3-(4-(3-(4-(trifluoromethoxy)phenyl)-1H-1,2,4-triazol-1-yl)phenyl)urea]: the pest or weed control at 50 µg/cm2 in experiment [1] and in experiment [2] was 50 to 100% in each case.
As to `Cc1ccc(OCCC(F)(F)F)c(N2C(=O)CS/C2=N\C(=O)Nc2ccc(-n3cnc(-c4ccc(OC(F)(F)F)cc4)n3)cc2)c1` [Compound J404, (Z)-1-(3-(5-Methyl-2-(3,3,3-trifluoropropoxy)phenyl)-4-oxothiazolidin-2-ylidene)-3-(4-(3-(4-(trifluoromethoxy)phenyl)-1H-1,2,4-triazol-1-yl)phenyl)urea], the pest or weed control at 50 µg/cm2 in experiment [1] and in experiment [2] was 50 to 100% throughout.
As for `COC(c1ccc(C)cc1N1C(=O)CS/C1=N\C(=O)Nc1ccc(-n2cnc(-c3ccc(OC(F)(F)F)cc3)n2)cc1)C(F)(F)F` (centres unmarked) [Compound J405, (Z)-1-(3-(5-Methyl-2-(2,2,2-trifluoro-1-methoxyethyl)phenyl)-4-oxothiazolidin-2-ylidene)-3-(4-(3-(4-(trifluoromethoxy)phenyl)-1H-1,2,4-triazol-1-yl)phenyl)urea], the pest or weed control at 50 µg/cm2 in experiment [1] and in experiment [2] was 50 to 100% throughout.
